Results reported in the NIST ThermoML archive (doi:10.1016/j.jct.2017.05.020).
± gives the expanded uncertainty stated by the source.

What was measured:
[1] = refractive index (Na D-line) (dimensionless); wn = mass fraction of the nth substance listed; details: 100 kPa, Liquid, Standard Abbe refractometry
[2] = wn = mass fraction of the nth substance listed; details: 100 kPa, Liquid, Vibrating tube method
[3] = 100 kPa, Liquid, Vibrating tube method
[4] = refractive index (Na D-line) (dimensionless); details: 100 kPa, Liquid, Standard Abbe refractometry

C=CC[P+](c1ccccc1)(c1ccccc1)c1ccccc1.[Br-] [allyltriphenylphosphonium bromide] + OCCOCCOCCO
Details | mass density, w1 = 0.1375 [kg/m3] | mass density, w1 = 0.2033 [kg/m3] | mass density, w1 = 0.3895 [kg/m3] | refractive index, w1 = 0.1375 | refractive index, w1 = 0.2033 | refractive index, w1 = 0.3895
[1], 293.15 K | – | – | – | 1.4803 ± 0.0038 | 1.4945 ± 0.0039 | 1.5314 ± 0.0037
[1], 298.15 K | – | – | – | 1.4786 ± 0.0038 | 1.4927 ± 0.0039 | 1.5297 ± 0.0037
[1], 303.15 K | – | – | – | 1.4769 ± 0.0038 | 1.4909 ± 0.0039 | 1.528 ± 0.0037
[1], 308.15 K | – | – | – | 1.4752 ± 0.0038 | 1.4892 ± 0.0039 | 1.5263 ± 0.0037
[1], 313.15 K | – | – | – | 1.4735 ± 0.0038 | 1.4874 ± 0.0039 | 1.5245 ± 0.0037
[1], 318.15 K | – | – | – | 1.4717 ± 0.0038 | 1.4857 ± 0.0039 | 1.5228 ± 0.0037
[1], 323.15 K | – | – | – | 1.47 ± 0.0038 | 1.4839 ± 0.0039 | 1.5211 ± 0.0037
[1], 328.15 K | – | – | – | 1.4683 ± 0.0038 | 1.4822 ± 0.0039 | 1.5193 ± 0.0037
[1], 333.15 K | – | – | – | 1.4666 ± 0.0038 | 1.4804 ± 0.0039 | 1.5176 ± 0.0037
[1], 338.15 K | – | – | – | 1.4649 ± 0.0038 | 1.4787 ± 0.0039 | 1.5158 ± 0.0037
[1], 343.15 K | – | – | – | 1.4632 ± 0.0038 | 1.4769 ± 0.0039 | 1.5141 ± 0.0037
[2], 293.15 K | 1146.2 ± 7.9 | 1159.2 ± 7.8 | 1190.8 ± 7.7 | – | – | –
[2], 298.15 K | 1142.5 ± 7.9 | 1155.5 ± 7.8 | 1187.1 ± 7.7 | – | – | –
[2], 303.15 K | 1138.8 ± 7.9 | 1151.7 ± 7.7 | 1183.4 ± 7.7 | – | – | –
[2], 308.15 K | 1135 ± 7.8 | 1148 ± 7.7 | 1179.7 ± 7.7 | – | – | –
[2], 313.15 K | 1131.3 ± 7.8 | 1144.2 ± 7.7 | 1176.1 ± 7.7 | – | – | –
[2], 318.15 K | 1127.5 ± 7.8 | 1140.5 ± 7.7 | 1172.4 ± 7.6 | – | – | –
[2], 323.15 K | 1123.7 ± 7.8 | 1136.7 ± 7.6 | 1168.7 ± 7.6 | – | – | –
[2], 328.15 K | 1119.9 ± 7.7 | 1133 ± 7.6 | 1165 ± 7.6 | – | – | –
[2], 333.15 K | 1116.1 ± 7.7 | 1129.2 ± 7.6 | 1161.3 ± 7.6 | – | – | –
[2], 338.15 K | 1112.2 ± 7.7 | 1125.5 ± 7.6 | 1157.6 ± 7.5 | – | – | –
[2], 343.15 K | 1108.4 ± 7.7 | 1121.7 ± 7.5 | 1153.9 ± 7.5 | – | – | –

OCCOCCOCCO [triethylene glycol]
Details | mass density, [3] [kg/m3] | refractive index, [4]
293.15 K | 1124.6 ± 7.9 | 1.4576 ± 0.0035
298.15 K | 1120.8 ± 7.9 | 1.4558 ± 0.0035
303.15 K | 1116.9 ± 7.8 | 1.4541 ± 0.0035
308.15 K | 1113 ± 7.8 | 1.4523 ± 0.0035
313.15 K | 1109.1 ± 7.8 | 1.4505 ± 0.0035
318.15 K | 1105.2 ± 7.7 | 1.4488 ± 0.0035
323.15 K | 1101.3 ± 7.7 | 1.4469 ± 0.0035
328.15 K | 1097.4 ± 7.7 | 1.445 ± 0.0035
333.15 K | 1093.5 ± 7.7 | 1.4434 ± 0.0035
338.15 K | 1089.6 ± 7.6 | 1.4417 ± 0.0035
343.15 K | 1085.6 ± 7.6 | 1.4399 ± 0.0035

OCCOCCO [diethylene glycol] + C=CC[P+](c1ccccc1)(c1ccccc1)c1ccccc1.[Br-]
w2 = 0
Details | mass density, [2] [kg/m3] | refractive index, [1]
293.15 K | 1116.5 ± 7.4 | 1.4477 ± 0.0032
298.15 K | 1113 ± 7.4 | 1.4461 ± 0.0032
303.15 K | 1109.4 ± 7.3 | 1.4446 ± 0.0032
308.15 K | 1105.8 ± 7.3 | 1.443 ± 0.0032
313.15 K | 1102.2 ± 7.3 | 1.4415 ± 0.0032
318.15 K | 1098.6 ± 7.3 | 1.44 ± 0.0032
323.15 K | 1095 ± 7.2 | 1.4384 ± 0.0032
328.15 K | 1091.4 ± 7.2 | 1.4368 ± 0.0032
333.15 K | 1087.7 ± 7.2 | 1.4351 ± 0.0032
338.15 K | 1084 ± 7.2 | 1.4334 ± 0.0032
343.15 K | 1080.3 ± 7.1 | 1.4317 ± 0.0032

OCCOCCO [diethylene glycol]
Details | mass density, [3] [kg/m3] | refractive index, [4]
293.15 K | 1116.5 ± 7.4 | 1.4477 ± 0.0032
298.15 K | 1113 ± 7.4 | 1.4461 ± 0.0032
303.15 K | 1109.4 ± 7.3 | 1.4446 ± 0.0032
308.15 K | 1105.8 ± 7.3 | 1.443 ± 0.0032
313.15 K | 1102.2 ± 7.3 | 1.4415 ± 0.0032
318.15 K | 1098.6 ± 7.3 | 1.44 ± 0.0032
323.15 K | 1095 ± 7.2 | 1.4384 ± 0.0032
328.15 K | 1091.4 ± 7.2 | 1.4368 ± 0.0032
333.15 K | 1087.7 ± 7.2 | 1.4351 ± 0.0032
338.15 K | 1084 ± 7.2 | 1.4334 ± 0.0032
343.15 K | 1080.3 ± 7.1 | 1.4317 ± 0.0032

OCCOCCOCCO [triethylene glycol] + C=CC[P+](c1ccccc1)(c1ccccc1)c1ccccc1.[Br-]
w2 = 0
Details | mass density, [2] [kg/m3] | refractive index, [1]
293.15 K | 1124.6 ± 7.9 | 1.4576 ± 0.0035
298.15 K | 1120.8 ± 7.9 | 1.4558 ± 0.0035
303.15 K | 1116.9 ± 7.8 | 1.4541 ± 0.0035
308.15 K | 1113 ± 7.8 | 1.4523 ± 0.0035
313.15 K | 1109.1 ± 7.8 | 1.4505 ± 0.0035
318.15 K | 1105.2 ± 7.7 | 1.4488 ± 0.0035
323.15 K | 1101.3 ± 7.7 | 1.4469 ± 0.0035
328.15 K | 1097.4 ± 7.7 | 1.445 ± 0.0035
333.15 K | 1093.5 ± 7.7 | 1.4434 ± 0.0035
338.15 K | 1089.6 ± 7.6 | 1.4417 ± 0.0035
343.15 K | 1085.6 ± 7.6 | 1.4399 ± 0.0035

C=CC[P+](c1ccccc1)(c1ccccc1)c1ccccc1.[Br-] [allyltriphenylphosphonium bromide] + OCCOCCO
Details | mass density, w1 = 0.1842 [kg/m3] | mass density, w1 = 0.2653 [kg/m3] | mass density, w1 = 0.4745 [kg/m3] | refractive index, w1 = 0.1842 | refractive index, w1 = 0.2653 | refractive index, w1 = 0.4745
[1], 293.15 K | – | – | – | 1.4817 ± 0.0036 | 1.4955 ± 0.0037 | 1.5446 ± 0.0039
[1], 298.15 K | – | – | – | 1.4801 ± 0.0036 | 1.4938 ± 0.0038 | 1.543 ± 0.0039
[1], 303.15 K | – | – | – | 1.4784 ± 0.0036 | 1.4921 ± 0.0038 | 1.5413 ± 0.0039
[1], 308.15 K | – | – | – | 1.4768 ± 0.0036 | 1.4904 ± 0.0037 | 1.5396 ± 0.0039
[1], 313.15 K | – | – | – | 1.4752 ± 0.0036 | 1.4887 ± 0.0037 | 1.538 ± 0.0039
[1], 318.15 K | – | – | – | 1.4735 ± 0.0036 | 1.487 ± 0.0037 | 1.5363 ± 0.0039
[1], 323.15 K | – | – | – | 1.4718 ± 0.0036 | 1.4853 ± 0.0037 | 1.5346 ± 0.0039
[1], 328.15 K | – | – | – | 1.4701 ± 0.0036 | 1.4836 ± 0.0037 | 1.5329 ± 0.0039
[1], 333.15 K | – | – | – | 1.4684 ± 0.0035 | 1.4819 ± 0.0037 | 1.5313 ± 0.0039
[1], 338.15 K | – | – | – | 1.4668 ± 0.0035 | 1.4802 ± 0.0037 | 1.5296 ± 0.0039
[1], 343.15 K | – | – | – | 1.4651 ± 0.0035 | 1.4785 ± 0.0037 | 1.5279 ± 0.0039
[2], 293.15 K | 1146.3 ± 7.5 | 1159.9 ± 7.6 | 1201.1 ± 7.6 | – | – | –
[2], 298.15 K | 1142.7 ± 7.4 | 1156.3 ± 7.6 | 1197.5 ± 7.6 | – | – | –
[2], 303.15 K | 1139.1 ± 7.4 | 1152.6 ± 7.5 | 1193.8 ± 7.6 | – | – | –
[2], 308.15 K | 1135.5 ± 7.4 | 1149 ± 7.5 | 1190.1 ± 7.6 | – | – | –
[2], 313.15 K | 1131.9 ± 7.4 | 1145.3 ± 7.5 | 1186.4 ± 7.5 | – | – | –
[2], 318.15 K | 1128.2 ± 7.3 | 1141.7 ± 7.5 | 1182.7 ± 7.5 | – | – | –
[2], 323.15 K | 1124.6 ± 7.3 | 1138 ± 7.4 | 1179 ± 7.5 | – | – | –
[2], 328.15 K | 1121 ± 7.3 | 1134.4 ± 7.4 | 1175.4 ± 7.5 | – | – | –
[2], 333.15 K | 1117.3 ± 7.3 | 1130.7 ± 7.4 | 1171.7 ± 7.4 | – | – | –
[2], 338.15 K | 1113.6 ± 7.2 | 1127 ± 7.4 | 1167.9 ± 7.4 | – | – | –
[2], 343.15 K | 1109.9 ± 7.2 | 1123.3 ± 7.4 | 1164.2 ± 7.4 | – | – | –
